Results on eleven compounds are retold here after BindingDB's records for doi:10.1124/jpet.104.077321 (I.G.B.M.C., 2005).

The term Ki denotes a dissociation constant, usually derived from enzyme kinetics or from competition with a known ligand. The low end stands for higher affinity, the high end for lower affinity.

Where a SMILES comes first, the peptide text is derived from it.

Chain of Delta-type opioid receptor (P41143 whole entry): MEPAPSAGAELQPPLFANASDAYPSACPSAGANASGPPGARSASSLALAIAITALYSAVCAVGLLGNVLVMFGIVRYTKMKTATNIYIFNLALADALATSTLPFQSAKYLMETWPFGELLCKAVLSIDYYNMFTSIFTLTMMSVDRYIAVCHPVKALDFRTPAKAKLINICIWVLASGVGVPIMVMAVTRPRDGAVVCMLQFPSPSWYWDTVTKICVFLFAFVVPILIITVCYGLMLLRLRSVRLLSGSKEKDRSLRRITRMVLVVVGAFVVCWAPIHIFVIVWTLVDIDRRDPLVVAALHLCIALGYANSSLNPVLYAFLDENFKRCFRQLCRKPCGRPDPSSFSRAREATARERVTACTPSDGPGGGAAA

The experiment concerns the target Delta-type opioid receptor (Homo sapiens, UniProt P41143).
The compound `Cc1cc(O)cc(C)c1C[C@@H](C(=O)N1Cc2ccccc2C[C@H]1C(N)=O)N(C)C` displayed a Ki of 2.5 nM. This counts as single-digit nanomolar.

With `Cc1cc(O)cc(C)c1C[C@H](N)C(=O)N1Cc2ccccc2C[C@H]1C(=O)O` [(S)-2-((S)-2-amino-3-(4-hydroxy-2,6-dimethylphenyl)propanoyl)-1,2,3,4-tetrahydroisoquinoline-3-carboxylic acid] (HELM PEPTIDE1{[Cc1cc(O)cc(C)c1C[C@H](N)C(=O)[*:2]].[Tic]}$$$$V2.0), the affinity, expressed as Ki, was 13.1 nM.

In the case of `Cc1cc(O)cc(C)c1C[C@H](N)C(=O)N1Cc2ccccc2C[C@H]1C(N)=O` [H-Dmt-Tic-NH2] (HELM PEPTIDE1{[Cc1cc(O)cc(C)c1C[C@H](N)C(=O)[*:2]].[Tic].[am]}$$$$V2.0), the affinity, expressed as Ki, was 9.41 nM.

For `CCO[C@@]12Cc3c([nH]c4ccccc34)[C@]3(C)Oc4c(O)ccc5c4C31CCN(CC1CC1)C2C5` (stereo partly specified) [HS378], the Ki is 0.4 nM.

Compound `C=CCN1CCC23c4c5ccc(O)c4OC2c2[nH]c4ccccc4c2C[C@@]3(OCC)C1C5` (stereo partly specified) [HS414] yielded an inhibition constant Ki of 2.1 nM.

`CCO[C@@]12Cc3c([nH]c4ccccc34)C3Oc4c(O)ccc5c4C31CCN(CC1CC1)C2C5` (stereo partly specified) [HS464] showed a Ki of 0.11 nM.

With `CCO[C@@]12Cc3c(oc4ccccc34)C3Oc4c(O)ccc5c4C31CCN(CC1CC1)C2C5` (stereo partly specified) [HS510A], the Ki worked out at 0.12 nM.

`C=CCN1CCC23c4c5ccc(O)c4OC2c2c(c4ccccc4n2C)C[C@@]3(OC)C1C5` (stereo partly specified) [HS531] came in with a Ki of 0.42 nM.

Turning to `COc1c(O)cc2c3c1O[C@@]1(C)c4oc5ccccc5c4C[C@@]4(O)C(C2)N(CC2CC2)CCC314` (stereo partly specified) [NSC_0], the Ki was found to be 0.22 nM.

`C=CCN(CC=C)[C@@H](Cc1ccc(O)cc1)C(=O)NC(C)(C)C(=O)NC(C)(C)C(=O)N[C@@H](Cc1ccccc1)C(=O)N[C@@H](CC(C)C)C(=O)O` [NSC_107691] (HELM PEPTIDE1{[C=CCN(CC=C)[C@@H](Cc1ccc(O)cc1)C(=O)[*:2]].[Aib].[Aib].F.L}$$$$V2.0): the Ki was 434 nM.

The compound `N[C@@H](Cc1ccc(O)cc1)C(=O)N1Cc2ccccc2C[C@H]1C(=O)N[C@@H](Cc1ccccc1)C(=O)N[C@@H](Cc1ccccc1)C(=O)O` [TIPP] (HELM PEPTIDE1{Y.[Tic].F.F}$$$$V2.0) registered a Ki of 2.9 nM.
